Test results reported in article PMC11634579, “Network pharmacology, experimental validation and pharmacokinetics integrated strategy to reveal pharmacological mechanism of goutengsan on methamphetamine dependence” (Frontiers in Pharmacology, 2024).
“Also recorded” adds a separate entry of the source.

Assay: Pharmacokinetics and brain tissue distribution after gavage of GTS (UPLC-MS)
Format: in vivo, Babl/c mice
Conditions: mice, after oral administration of GTS
Experimental: Animal experiments: Babl/c mice weighing 18–22 g (6–8 weeks old) with equal numbers of males and females, were provided by the Experimental Animal Center of Southern Medical University. The mice were maintained at room temperature (20 ± 2) °C, humidity (60 ± 5)%, 12 h light cycles, and provided an ad libitum diet. Thirty mice were randomly divided into 0.5, 2, 4, 6 and 9 h groups, with 6 mice each. An infusion at concentration of 2.75 g of GTS crude drug/mL was obtained, and the drug was administered by gavage at a dose of 2 mL GTS infusion drug/kg. After 0.5, 2, 4, 6 and 9 h of administration, the plasma and brain tissues in the 0.5, 2, 4, 6 and 9 h groups were collected. The plasma and brain tissue samples were processed in accordance with biological sample processing procedures.
Establishment of UPLC-MS method: An LCMS-8050 liquid chromatography mass spectrometer (Shimadzu, Japan) was operated with a horizon C18 column (100 × 2.1 mm, 3 µm). The mobile phase was 0.1% formic acid in water (A) - acetonitrile (B), and the gradient elution was 0–8 min, 10%–50% B; 8–9 min, 50%–10% B; 9–11 min, 10% B. The column temperature was 30°C, the injection volume was 5 μL, and flow rate was 0.4 mL min^−1. The mass spectrometry conditions included HPLC-MS/MS in […] full-scan and sub-ion scanning modes, an electrospray ionization source (ESI), positive and negative ion mode detection, and nebulizing gas of nitrogen (N2). The zeroed gas flow rate was 3 L min^−1, desolventization temperature was 526°C, and DL temperature was 250°C. Then the parent ion, daughter ion, collision energy, and polarity of the above components were determined (Table 2).
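Throughout, for BBB (blood–brain–barrier): unitless TCMSP predicted score with screening cut-off BBB at least 0.3.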

| Compound | exposure in plasma and brain | detection in brain tissues | detection in plasma |
| --- | --- | --- | --- |
| COc1c2c(cc3oc(C)cc(=O)c13)OC(C(C)(C)O[C@@H]1O[C@H](CO)[C@@H](O)[C@H](O)[C@H]1O)C2 (stereo partly shown) [5-O-Methylviscumaboloside] | exposed in the plasma and brain | – | – |
| O=C(/C=C/c1ccc(O)c(O)c1)O[C@@H]1C[C@](O)(C(=O)O)C[C@@H](O)[C@H]1O [Chlorogenic acid] | exposed in the plasma and brain; also recorded: absorbed into the bloodstream and distributed to brain tissues | – | – |
| COc1ccc([C@@H]2CC(=O)c3c(O)cc(O[C@@H]4O[C@H](CO[C@@H]5O[C@@H](C)[C@H](O)[C@@H](O)[C@H]5O)[C@@H](O)[C@H](O)[C@H]4O)cc3O2)cc1O [Hesperidin] | exposed in the plasma and brain; also recorded: absorbed into the bloodstream and distributed to brain tissues | – | – |
| O=C1C[C@@H](c2ccc(O[C@@H]3O[C@H](CO)[C@@H](O)[C@H](O)[C@H]3O)cc2)Oc2cc(O)ccc21 [Liquiritin] | – | undetectable | detectable in plasma and at high levels |

Same assay, conditions: mice, gavage of GTS infusion (2.75 g crude drug/mL, 2 mL/kg); sampling 0.5, 2, 4, 6, 9 h

| Compound | time at which concentration in brain peaked |
| --- | --- |
| COc1c2c(cc3oc(C)cc(=O)c13)OC(C(C)(C)O[C@@H]1O[C@H](CO)[C@@H](O)[C@H](O)[C@H]1O)C2 (stereo partly shown) [5-O-Methylviscumaboloside] | 6 h |
| COc1ccc([C@@H]2CC(=O)c3c(O)cc(O[C@@H]4O[C@H](CO[C@@H]5O[C@@H](C)[C@H](O)[C@@H](O)[C@H]5O)[C@@H](O)[C@H](O)[C@H]4O)cc3O2)cc1O [Hesperidin] | 4 h |

Assay: not given
Design: method as in Ru et al., 2014
Conditions: obtained from TCMSP database; ref Ru et al., 2014; cited from earlier work

| Compound | BBB (blood–brain–barrier) | OB% (oral bioavailability) |
| --- | --- | --- |
| CC(C)=CCOc1c2occc2cc2ccc(=O)oc12 [Ammidin] | 0.92 | 34.55% |
| CCCCC/C=C\C/C=C\CCCCCCCC(=O)OCC [Mandenol] | 1.14 | 42.00% |
| COc1c2ccoc2c(OCC=C(C)C)c2oc(=O)ccc12 [Phellopterin] | 0.48 | 40.19% |
| COc1cc(O)cc2c1[C@@H]1Oc3c(ccc(O)c3CC=C(C)C)[C@@H]1CO2 [1-methoxyphaseollidin] | 0.48 | 69.98% |
| CC(C)[C@@H](C)/C=C/[C@@H](C)[C@H]1CC[C@@H]2[C@]1(C)CC[C@H]1[C@]23C=C[C@]2(C[C@@H](O)CC[C@]12C)OO3 [Ergosterol peroxide] | 0.34 | 40.36% |
| CC1(C)C=Cc2c(ccc3c2OC[C@@H](c2ccc(O)cc2O)C3)O1 [Glabridin] | 0.36 | 53.25% |
| CCCCCCCCCCCCCCC=CCCCC(=O)O [Icos-5-enoic acid] | 1.09 | 30.70% |
| COc1c2c(cc3oc(C)cc(=O)c13)OC(C(C)(C)O[C@@H]1O[C@H](CO)[C@@H](O)[C@H](O)[C@H]1O)C2 (stereo partly shown) [5-O-Methylviscumaboloside] | 0.56 | 32.47% |
| CC1(C)C=Cc2cc([C@@H]3CC(=O)c4ccc5c(c4O3)C=CC(C)(C)O5)ccc2O1 [Xambioona] | 0.52 | 54.85% |
| CCCCCCCCOC(=O)c1ccccc1C(=O)OCCCC [Butyl octyl phthalate] | 0.60 | 43.74% |
| COc1ccc(C2COc3c(ccc4c3C=CC(C)(C)O4)C2)c(O)c1O (stereo not shown) [3′-hydroxy-4′-O-methylglabridin] | 0.73 | 43.71% |
| COc1c2ccoc2c(OCC=C(C)C)c2oc(=O)ccc12 [Phelloptorin] | 0.43 | 43.39% |
| C=C[C@H]1CN2CCc3c([nH]c4ccccc34)[C@H]2C[C@@H]1/C(=C\OC)C(=O)OC [delta (sup 18)-Hirsutine] | 0.76 | 41.64% |
| O=c1oc2ccccc2c2oc3ccccc3c(=O)c12 [Frutinone A] | 0.46 | 65.90% |
| CCC(CC[C@@H](C)[C@H]1CC[C@H]2[C@@H]3CCC4=CC(=O)CC[C@]4(C)[C@H]3CC[C@]12C)C(C)C (stereo partly shown) [24-ethylcholest-4-en-3-one] | 1.22 | 36.08% |
| CC(C)[C@@H](C)/C=C/[C@@H](C)[C@H]1CC[C@H]2C3=CC[C@H]4C[C@@H](O)CC[C@]4(C)[C@H]3CC[C@]12C [5-dihydroergosterol] | 0.91 | 43.51% |
| O=C(/C=C/c1ccc(O)c(O)c1)O[C@@H]1C[C@](O)(C(=O)O)C[C@@H](O)[C@H]1O [Chlorogenic acid] | 0.94 | 30.70% |
| COC(=O)C1=CO[C@@H](C)[C@@H]2CN3CCc4c([nH]c5ccccc45)[C@@H]3C[C@H]12 [Tetrahydroalstonine] | 0.33 | 32.42% |
| CC1(C)C=Cc2c(ccc3c2OC[C@H]2c4ccc(O)cc4O[C@@H]32)O1 [Shinpterocarpin] | 0.68 | 80.30% |
| CC[C@H]1CN2CC[C@@]3(C(=O)Nc4ccccc43)[C@@H]2C[C@@H]1/C(=C\OC)C(=O)OC [Isorhyncophylline] | 0.33 | 47.31% |
| CCCCCCC=CCC=CCCCCCCCCC(=O)O [10,13-eicosadienoic acid] | 0.82 | 39.99% |
| CC[C@H]1CN2CCc3c([nH]c4ccccc34)[C@H]2C[C@@H]1/C(=C\OC)C(=O)OC [Hirsutine] | 0.78 | 34.44% |
| Medicarpin | 0.53 | 49.22% |

| Compound | BBB (blood–brain–barrier) | OB% (oral bioavailability) |
| --- | --- | --- |
| CCCCC[C@H](O)CC(=O)CCc1ccc(O)c(OC)c1 [6-Gingerol] | 1.22 | 61.22% |
| COc1c(O)ccc(C2COc3c(ccc4c3C=CC(C)(C)O4)C2)c1O (stereo not shown) [3′-methoxyglabridin] | 0.47 | 46.16% |
| COc1ccc([C@@H]2CC(=O)c3c(O)cc(O[C@@H]4O[C@H](CO[C@@H]5O[C@@H](C)[C@H](O)[C@@H](O)[C@H]5O)[C@@H](O)[C@H](O)[C@H]4O)cc3O2)cc1O [Hesperidin] | 0.82 | 32.75% |
| CC(C)=CCOc1c2ccoc2cc2oc(=O)ccc12 [Isoimperatorin] | 0.66 | 45.46% |
| CC[C@H](CC[C@@H](C)[C@H]1CC[C@H]2[C@@H]3CC=C4C[C@@H](O)CC[C@]4(C)[C@H]3CC[C@]12C)C(C)C [Beta-sitosterol] | 0.99 | – |
| CC(C)=CCC[C@@H](C)[C@H]1CC[C@@]2(C)[C@@H]3CC[C@H]4C(C)(C)[C@@H](O)CC[C@@]45C[C@@]35CC[C@]12C [Cycloartenol] | 1.33 | – |
| COc1cc(CNC(=O)CCCCCCC(C)C)ccc1O [Dihydrocapsaicin] | 0.47 | 47.07% |
| O=C1C[C@@H](c2ccc(O[C@@H]3O[C@H](CO)[C@@H](O)[C@H](O)[C@H]3O)cc2)Oc2cc(O)ccc21 [Liquiritin] | 0.61 | 58.81% |
| CC[C@H](/C=C/[C@@H](C)[C@H]1CC[C@H]2[C@@H]3CC=C4C[C@@H](O)CC[C@]4(C)[C@H]3CC[C@]12C)C(C)C [Stigmasterol] | 1.00 | 43.83% |
| COc1ccc2c(=O)c(-c3ccccc3)c(C)oc2c1 [7-methoxy-2-methyl isoflavone] | 0.56 | 42.56% |
| CC(C)=CCc1c2ccoc2c(O)c2oc(=O)ccc12 [Prangenidin] | 0.50 | 36.31% |
| CC(C)=CCc1c(O)cc(O)c2c1O[C@H](c1ccccc1)CC2=O [Glabranin] | 0.31 | 52.90% |
| C=C[C@H]1CN2CC[C@]3(C(=O)Nc4ccccc43)[C@@H]2C[C@@H]1/C(=C\OC)C(=O)OC [Corynoxeine] | 0.50 | 57.13% |
| COc1cc2c(cc1OC)[C@H]1[C@@H](C)c3ccc4c(c3CN1CC2)OCO4 [Cavidine] | 0.63 | 35.64% |
| C=C(C(=O)OC1CC2NC(C1)C1OC21)c1ccccc1 (stereo not shown) [Aponorhyoscine] | 0.40 | 66.65% |
| Oc1ccc2c(c1)OC[C@H]1c3cc4c(cc3O[C@@H]21)OCO4 [Inermine] | 0.40 | 75.18% |
| Oc1ccc2c(c1)OC[C@H]1c3cc4c(cc3O[C@@H]21)OCO4 [Inermin] | 0.36 | 65.83% |
| CCCCC/C=C\C/C=C\C/C=C\C/C=C\CCCC(=O)O [Arachidonate] | 0.58 | 45.57% |
| CC1(C)C=Cc2c(ccc([C@@H]3COc4cc(O)ccc4C3)c2O)O1 [Phaseolinisoflavan] | 0.46 | 32.01% |
| CC[C@@H](CC[C@@H](C)[C@H]1CC[C@H]2[C@@H]3CC=C4C[C@@H](O)CC[C@]4(C)[C@H]3CC[C@]12C)C(C)C [Clionasterol] | 1.14 | – |
| CC1(C)CC[C@]2(C(=O)O)CC[C@]3(C)C(=CC[C@@H]4[C@@]5(C)CC[C@H](O)[C@@](C)(CO)[C@@H]5CC[C@]43C)[C@@H]2C1 [Hederagenin] | 0.96 | – |
| CC[C@H](CC[C@@H](C)[C@H]1CC[C@H]2[C@@H]3CC=C4C[C@@H](O)CC[C@]4(C)[C@H]3CC[C@]12C)C(C)C [Sitosterol] | 0.87 | – |
| CCCCCC=CCC=CCCCCCCCCCC(=O)OC [Methyl icosa-11,14-dienoate] | 1.10 | 39.67% |
